In ChEMBL document CHEMBL6087395, “NGT: Generative AI with Synthesizability Guarantees Discovers MC2R Inhibitors from a Tera-Scale Virtual Screen” (J Med Chem, 2024):

Tests used:
Melanocortin receptor 4 = Melanocortin receptor 4 (Homo sapiens, UniProt P32245); test: Antagonist activity at human MC4 receptor expressed in HEK293 cells assessed as inhibition of ACTH-induced cAMP accumulation measured after 70 mins incubation by fluorescence analysis; type: functional, cell-based
Melanocortin receptor 3 = Melanocortin receptor 3 (Homo sapiens, UniProt P41968); test: Antagonist activity at human MC3 receptor expressed in HEK293 cells assessed as inhibition of ACTH-induced cAMP accumulation measured after 70 mins incubation by fluorescence analysis; type: functional, cell-based
Chain of Melanocortin receptor 3 (P41968 whole entry): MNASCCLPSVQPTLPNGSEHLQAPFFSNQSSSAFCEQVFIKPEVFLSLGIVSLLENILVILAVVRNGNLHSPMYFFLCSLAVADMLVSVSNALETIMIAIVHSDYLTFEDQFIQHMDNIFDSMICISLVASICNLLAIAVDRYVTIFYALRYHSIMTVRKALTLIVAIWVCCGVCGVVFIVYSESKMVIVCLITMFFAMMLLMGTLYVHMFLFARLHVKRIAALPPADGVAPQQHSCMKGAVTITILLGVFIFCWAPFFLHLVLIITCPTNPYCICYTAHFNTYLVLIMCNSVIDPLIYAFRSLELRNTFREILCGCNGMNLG

[1] = Antagonist activity at human MC2 receptor expressed in HEK293 cells assessed as inhibition of ACTH-induced cAMP accumulation measured after 70 mins incubation by fluorescence analysis; settings: HEK293, 70 min
Melanocortin receptor 5 = Melanocortin receptor 5 (Homo sapiens, UniProt P33032); test: Antagonist activity at human MC5 receptor expressed in HEK293 cells assessed as inhibition of ACTH-induced cAMP accumulation measured after 70 mins incubation by fluorescence analysis; type: functional, cell-based
Chain of Melanocortin receptor 5 (P33032 whole entry): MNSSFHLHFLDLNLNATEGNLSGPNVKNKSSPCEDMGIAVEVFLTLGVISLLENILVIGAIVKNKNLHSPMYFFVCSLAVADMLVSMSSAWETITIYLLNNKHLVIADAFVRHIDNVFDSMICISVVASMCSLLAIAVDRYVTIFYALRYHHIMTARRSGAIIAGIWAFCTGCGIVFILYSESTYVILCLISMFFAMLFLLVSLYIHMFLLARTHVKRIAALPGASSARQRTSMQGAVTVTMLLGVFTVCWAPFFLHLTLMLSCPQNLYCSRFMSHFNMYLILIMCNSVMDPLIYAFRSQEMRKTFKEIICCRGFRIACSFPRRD

Chain of Melanocortin receptor 4 (P32245 whole entry): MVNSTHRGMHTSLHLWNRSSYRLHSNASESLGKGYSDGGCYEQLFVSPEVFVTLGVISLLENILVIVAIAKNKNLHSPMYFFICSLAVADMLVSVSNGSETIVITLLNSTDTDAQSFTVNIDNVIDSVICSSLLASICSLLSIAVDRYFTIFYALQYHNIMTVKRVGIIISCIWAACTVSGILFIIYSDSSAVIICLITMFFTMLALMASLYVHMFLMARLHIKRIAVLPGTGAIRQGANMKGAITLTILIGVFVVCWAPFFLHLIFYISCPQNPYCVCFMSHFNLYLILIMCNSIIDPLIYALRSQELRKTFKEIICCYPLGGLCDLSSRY

Structure (SMILES) | EC50 (Melanocortin receptor 4) | EC50 (Melanocortin receptor 3) | EC50 [1] | EC50 (Melanocortin receptor 5)
COc1cc(C)c(-c2c(C)c(C)c(C(=O)NCC3CCCN3CCCO)c(C)c2C)cc1C (stereo not given) | – | 156 µM | – | 150 µM
CCc1ccc(-c2cc(CNC3CCN(c4ccccc4C(N)=O)C3)c(OC)cc2F)s1 (stereo not given) | – | 33 µM | – | –
O=C(NCC(F)F)C(C1CC2(C1)CC21CCC1)N(C(=O)c1cc2c(cn1)CCCC2)[C@H]1C[C@@H](N2CCCC2)C1 (stereo not given in full) | 36 µM | 50 µM | 38 µM | 102 µM
COc1ccc(C(CN(C)C)NC(=O)COc2ccc(-c3cccc4c3OCC4)cc2Cl)cc1 (stereo not given) | 31 µM | 37 µM | 4.1 µM | 13 µM

The next lines start with the values.

EC50 (Melanocortin receptor 4) | EC50 (Melanocortin receptor 3) | EC50 [1] | EC50 (Melanocortin receptor 5) | Structure (SMILES)
32 µM | 33 µM | 11 µM | 31 µM | O=C1NCCOc2ccc(CNCC3(c4ccc(C=C5CCSCC5)s4)CCC3)cc21
33 µM | 32 µM | 7 µM | 72 µM | COCCNC(=O)C(C1CC2(C1)CC21CCC1)N(C(=O)c1cn(C)cn1)C1CCCN(c2cccc(C)c2)C1 (stereo not given)
– | – | – | 16 µM | Cc1ccc(-c2cc(Cl)cs2)cc1C1(C(=O)NC2CN(C3CCC3)C2)CC1
– | 19 µM | – | – | CCCN1CC(NC(=O)[C@@H]2C[C@H]2c2cccc(-c3cc(Cl)ccc3OC)c2Cl)C1
425 µM | 94 µM | 6.7 µM | 154 µM | CC1CC(N2CCCC2)CN1C(=O)c1cc(O)cc(-c2cc(Cl)ccc2F)c1 (stereo not given)
